The record followed here is patent US9611276B2, “Imidazo bicyclic iminium compounds as antitumor agents” (THE BOARD OF TRUSTEES OF THE LELAND STANFORD JUNIOR …, priority 2012, dated 2017).

SMILES strings stand for the structures.

Assay [1] has as its system Gli2. Nature of the assay: Gli2 trafficking assay in NIH 3T3 cells. Type of assay: cell-based. The note with it: ShhN treatment. How it is done: NIH 3T3 cells were also employed in an assay to quantify Gli2 trafficking NIH-3T3 cells were seeded into 24-well plates containing poly-D-lysine-coated 12-mm glass coverslips (65,000 cells/well) and cultured for 24 hrs. […] Each compound or vehicle treatment was conducted in biological triplicates in the presence or absence of 10% (v/v) ShhN-conditioned medium. The cells were subsequently fixed in PBS containing 4% (v/v) paraformaldehyde for 12 min at room temperature, washed three times with PBS, permeabilized in PBS containing 0.5% (v/v) Triton X-100 for 5 min, and washed again twice in PBS. […] After three PBS washes, the coverslips were mounted onto slides using Prolong Gold Antifade Reagent with DAPI (Invitrogen, P36931). The cells were imaged using a Plan Apochromat 63×/1.4-0.6 oil immersion objective on an upright Leica DM4500B compound microscope. Ciliary Gli2 levels were quantified by determining total pixel intensity within a circular region manually placed at the distal end of each cilium and subtracting background fluorescence in an adjacent region of equivalent size. A total of 30 cilia from three coverslips were analyzed to determine the average ciliary Gli2 level for each experimental condition as a measure of Gli2 trafficking.

The target in assay [2] is Gli2 (Homo sapiens, UniProt P10070). Nature of the assay: Overexpression of Gli2 in Gli1 null cells, firefly luciferase reporter. Type of assay: cell-based, mouse. The arrangement: expressed in transfected cells; host or cells: Gli1-/- immortalized mouse embryonic fibroblasts. How it is done: Gli1 null cells [see Lipinski et al. BMC Cell Biol. 2008; 9:49], an immortalized mouse embryonic fibroblast cell line lacking the Gli1 gene, were cultured in DMEM (Invitrogen, 11965) containing 10% (v/v) calf serum (ATCC, 30-2030), 1 mM sodium pyruvate (Invitrogen, 11360), 1× PenStrep (Gibco, 15140) and 1×MEM non-essential amino acids solution (11140, Invitrogen).
(§1) All test compounds were dissolved in DMSO at 50 mM, serially diluted by 1:3, 1:4 or 1:5 in a 96-well translucent microplate (Greiner bio-one, 650201) and stored at −20° C. These serial dilutions were added to assay media freshly with final DMSO concentration of 0.2% (v/v).
Overexpression of Gli2 in Gli1 null cells provides a measure of Gli2-induced pathway activity. pcDNA-derived Gli2 expression vectors (200 ng/well) and a 1:19 mixture (total 200 ng/well) of constitutive Renilla luciferase reporter (pRLTK, Promega) and firefly luciferase reporter (8XGliBS-FL) were mixed with FuGene HD transfection reagent (1.2 μL/well, Promega, E2311) in Opti-MEM Reduced-Serum Medium with GLutaMAX (Invitrogene, 51985) at a total volume of 25 μL/well. […] The cells were lysed with passive lysis buffer (200 μL/well), and 10 μL of the obtained lysate were analyzed for firefly and Renilla luciferase activities using Dual-Luciferase Reporter Assay System (Promega, E1960) (50 μL/well of each reagent) on a microplate luminometer (Veritas). […]

The next assay concerns Wnt pathway activity. Nature of the assay: Wnt-LIGHT cell assay with Wnt3a-conditioned medium. Format: cell-based. Here is the method:
Wnt-LIGHT cells [see Hyman et al. Proc Natl Acad Sci USA. 2009; 106(33):14132-7], a L-cell-based cell line containing a stably integrated TCF/LCF-dependent firefly luciferase reporter (SuperTopFlash), constitutive Renilla luciferase reporter (pRLSV40, Promega), and geneticin resistance vector (pcDNA3, Invitrogen), were cultured in DMEM (Invitrogen, 11965) containing 10% (v/v) fetal bovine serum (Invitrogen, No. 26140), 400 μg/mL G418 (Invitrogen, 11811) and 1× PenStrep (Gibco, 15140).
as §1
The Wnt-LIGHT cell assay provides a measure of Wnt pathway activity. Wnt3a-conditioned medium was prepared by culturing Wnt3a-expressing L cells obtained from ATCC in DMEM (Invitrogen, 11965) containing 10% (v/v) fetal bovine serum (Invitrogen, No. 26140) and 1× PenStrep (Gibco, 15140). […] The cells were lysed with passive lysis buffer (50 μL/well), and 10 μL of the obtained lysate were analyzed for firefly and Renilla luciferase activities using Dual-Luciferase Reporter Assay System (Promega, E1960) (50 μL/well of each reagent) on a microplate luminometer (Veritas). Biological triplicates were analyzed for each test compounds.

Gli2 (Homo sapiens, UniProt P10070), sequence (P10070 whole entry, species assumed): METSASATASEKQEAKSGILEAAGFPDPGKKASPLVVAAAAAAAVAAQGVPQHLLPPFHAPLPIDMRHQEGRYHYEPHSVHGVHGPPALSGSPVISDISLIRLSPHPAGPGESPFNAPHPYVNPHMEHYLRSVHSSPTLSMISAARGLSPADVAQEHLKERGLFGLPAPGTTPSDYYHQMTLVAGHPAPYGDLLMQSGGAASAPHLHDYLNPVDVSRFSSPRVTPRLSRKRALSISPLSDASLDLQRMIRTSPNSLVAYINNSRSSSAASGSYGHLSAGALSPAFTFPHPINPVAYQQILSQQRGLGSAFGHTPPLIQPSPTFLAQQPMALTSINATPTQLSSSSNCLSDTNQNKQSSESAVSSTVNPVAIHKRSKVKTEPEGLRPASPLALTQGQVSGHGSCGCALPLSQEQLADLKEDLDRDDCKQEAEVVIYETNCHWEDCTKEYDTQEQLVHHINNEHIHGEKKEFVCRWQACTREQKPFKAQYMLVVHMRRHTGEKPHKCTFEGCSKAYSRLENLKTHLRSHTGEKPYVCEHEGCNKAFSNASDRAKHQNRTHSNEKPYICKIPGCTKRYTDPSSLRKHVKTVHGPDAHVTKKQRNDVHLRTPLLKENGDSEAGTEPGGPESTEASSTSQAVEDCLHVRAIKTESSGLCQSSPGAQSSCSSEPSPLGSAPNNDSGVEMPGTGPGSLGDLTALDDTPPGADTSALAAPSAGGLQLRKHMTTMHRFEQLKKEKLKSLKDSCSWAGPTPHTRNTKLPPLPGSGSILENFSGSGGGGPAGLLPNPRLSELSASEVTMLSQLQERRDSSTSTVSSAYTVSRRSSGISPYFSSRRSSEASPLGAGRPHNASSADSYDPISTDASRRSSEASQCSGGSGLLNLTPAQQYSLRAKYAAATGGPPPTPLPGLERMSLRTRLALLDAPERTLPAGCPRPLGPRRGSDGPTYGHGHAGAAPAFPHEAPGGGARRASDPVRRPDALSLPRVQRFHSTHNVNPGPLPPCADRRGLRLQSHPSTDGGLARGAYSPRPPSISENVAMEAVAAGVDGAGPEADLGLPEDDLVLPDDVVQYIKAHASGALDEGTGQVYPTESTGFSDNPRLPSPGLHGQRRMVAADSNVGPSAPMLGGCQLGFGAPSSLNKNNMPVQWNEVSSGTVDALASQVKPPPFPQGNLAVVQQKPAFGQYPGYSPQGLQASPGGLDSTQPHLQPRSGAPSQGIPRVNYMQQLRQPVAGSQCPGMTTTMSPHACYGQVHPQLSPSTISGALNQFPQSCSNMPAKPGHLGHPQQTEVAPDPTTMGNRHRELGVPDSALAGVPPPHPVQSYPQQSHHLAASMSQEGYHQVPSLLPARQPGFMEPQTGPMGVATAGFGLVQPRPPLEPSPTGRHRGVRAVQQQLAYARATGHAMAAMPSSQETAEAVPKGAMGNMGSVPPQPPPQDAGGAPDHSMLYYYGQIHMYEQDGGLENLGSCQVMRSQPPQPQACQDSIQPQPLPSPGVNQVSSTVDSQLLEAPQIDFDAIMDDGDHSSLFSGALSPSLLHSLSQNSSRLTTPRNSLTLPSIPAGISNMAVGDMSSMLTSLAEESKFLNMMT

In the case of `CCOc1ccc(-[n+]2cc(-c3ccc(Br)cc3)n3c2CCCCC3)cc1` [Compound A-1], in the assay with Gli2 [1], the “Effect on ShhN-induced Gli2 accrual at the ciliary distal tip” value is recorded as “did not inhibit this process”. Moreover, the “Gli2-induced Hh reporter expression in cells lacking Gli1” value at Gli2 [2] was “not able to inhibit”. The “IC50, firefly luciferase” value on Gli2 [2] (Gli2-overexpressing Gli1-/-) and in the assay with Wnt pathway activity (Wnt-LIGHT w/ Wnt3a) was “No inhibition” each time. Also, the “Inhibition of Wnt signaling” value in the assay with Wnt pathway activity is listed as “did not inhibit Wnt signaling”.
